Measured values taken from patent US20160068843A1 (priority 2012, published 2016).

Test system: H1N1 strain (A/California/07/09 (H1N1)pdm09)
Set-up: species or system mice
Conditions: mouse, in vivo

`CCOC(=O)C1=C[C@@H](OC(CC)CC)[C@H](NC(C)=O)[C@@H](N)C1` [Tamiflu] was tested, and the “survival compared with siRNA combination” value was “equivalent”.
